# Read-outs that look alike come from different tables or passages of the source.
# How the values were obtained:
# rgRSV224 virus = test: Antiviral activity: rgRSV224 (GFP) replication in HeLa cells; format: cell-based, respiratory syncytial virus (RSV); settings: human respiratory syncytial virus, HeLa
# Outline: (§1)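 HeLa cells infected with GFP-expressing rgRSV224 at MOI 1 in RPMI/10% FBS, 0.05% DMSO, with 9 serial 4-fold compound dilutions; 3 days at 37 °C, GFP read by laser microscopy for EC50. Cytotoxicity: uninfected HeLa cells, 3 days, cellular ATP (ATPlite) for CC50.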
# [1] = Cytotoxicity in HeLa cells (ATP content, ATPlite kit); format: cell-based; settings: human
# Outline: as §1
# [2] = 72 h, read-out: RSV HELA EC50, HeLa cells, rgRSV224 MOI = 1, GFP expression three days post-virus exposure, averaged data of several repeat experiments
# [3] = comparison table 5.3, antiviral RSV assay of Example 5.1
Compound,EC50 (rgRSV224 virus; [2]),CC50 at 3 days ([1]; TOX HELA CC50),EC50 (rgRSV224 virus; [3]),CC50 at 3 days ([1]; CC50)
COc1cc(C(=O)NC[C@](O)(c2cc(C(C)(C)O)c(F)c(-c3ccc(F)cc3)n2)C2CC2)cc2cc(C(F)F)nnc12 [compound 269],0.0012 µM,20 µM,–,–
"COc1cc(C(=O)NC[C@](O)(c2cc(C(C)(C)O)c(F)c(-c3ccc(F)c(F)c3)n2)C2CC2)cc2cc(C(F)F)nnc12 [compound 270, (-)-N-{2-Cyclopropyl-2-[6-(3,4-Difluorophenyl)-5-Fluoro-4-(2-Hydroxypropan-2-yl)Pyridin-2-yl]-2-Hydroxyethyl}-3-(Difluoromethyl)-8-Methoxycinnoline-6-Carboxamide]",0.00084 µM,15 µM,–,–
"COc1cc(C(=O)NC[C@](O)(c2cc(C(C)(C)O)c(F)c(-c3ccc(F)cc3)n2)C2CC2)cc2cc(C3CC3)nnc12 [compound 271, 3-Cyclopropyl-N-{(-)-2-Cyclopropyl-2-[5-Fluoro-6-(4-Fluorophenyl)-4-(2-Hydroxypropan-2-yl)Pyridin-2-yl]-2-Hydroxyethyl)-8-Methoxycinnoline-6-Carboxamide]",0.0015 µM,11 µM,0.0015 µM,11 µM
"Cc1cnc2c(OC3CC3)cc(C(=O)NC[C@](O)(c3cc(C(C)(C)O)c(F)c(-c4ccc(F)cc4)n3)C(F)(F)F)cc2c1 [compound 272, (-)8-(Cyclopropyloxy)-3-Methyl-N-{(2S)-3,3,3-Trifluoro-2-[5-Fluoro-6-(4-Fluorophenyl)-4-(2-Hydroxypropan-2-yl)Pyridin-2-yl]-2-Hydroxypropyl}Quinoline-6-Carboxamide]",0.0037 µM,17 µM,0.004 µM,17 µM
"COc1cc(C(=O)NC[C@](O)(c2cc(C(C)(C)O)c(F)c(-c3ccc(F)cc3)n2)C(F)(F)F)cc2cc(C)c(F)nc12 [compound 273, (-)Fluoro-8-methoxy-3-methyl-n-(3,3,3-trifluoro(5-fluoro-6-(4-fluorophenyl)-4-(2-hydroxypropanyl)pyridinyl)hydroxypropyl)quinoline-6-carboxamide]",0.00381 µM,13 µM,–,–
"COc1cc(C(=O)NC[C@](O)(c2cc(C(C)(C)O)c(F)c(-c3ccc(C(F)(F)F)cc3)n2)C(F)(F)F)cc2cc(C)nnc12 [compound 274, (-)Methoxy-3-Methyl-N-(3,3,3-Trifluoro-2-(5-Fluoro-4-(2-Hydroxypropan-2-yl)-6-(4-(Trifluoromethyl)Phenyl)pyridin-2-yl)-2-Hydroxypropyl)Cinnoline-6-Carboxamide]",0.00148 µM,11 µM,–,–
COc1cc(C(=O)NC[C@@](O)(c2cc(C(C)(C)O)c(F)c(-c3ccc(F)cc3)n2)C2CC2)cc2cc(C)nnc12 [compound 275],0.097 µM,17 µM,–,–
"COc1cc(C(=O)NC[C@](O)(c2cc(C(C)(C)NS(C)(=O)=O)c(Cl)c(-c3ccc(F)cc3)n2)C(F)(F)F)cc2cc(C)nnc12 [compound 276, (-)-N-{2-[5-Chloro-6-(4-Fluorophenyl)-4-{2-[(Methanesulfonyl)Amino]Propan-2-yl}Pyridin-2-yl]-3,3,3-Trifluoro-2-Hydroxypropyl}-8-Methoxy-3-Methylcinnoline-6-Carboxamide]",0.0038 µM,51 µM,–,–
COc1cc(C(=O)NC[C@](O)(c2cc(C(C)(C)O)c(Cl)c(-c3ccc(F)cc3)n2)C(F)(F)F)cc2cc(C(F)(F)F)nnc12 [compound 277],0.016 µM,15 µM,–,–
COc1cc(C(=O)NC[C@](O)(c2cc(C(C)(C)O)c(F)c(-c3ccc(Cl)cc3)n2)C2CC2)cc2cc(C)nnc12 [compound 278],0.00065 µM,29 µM,–,–
"COc1cc(C(=O)NC[C@@](O)(c2nc(-c3ccc(F)cc3)cc(C(C)(C)O)c2F)C(F)(F)F)cc2cc(C)nnc12 [compound 280, (+)Methoxy-3-Methyl-N-(3.3.3-Trifluoro-2-(3-Fluoro-6-(4-Fluorophenyl)-4-(2-Hydroxypropan-2-yl)Pyridm-2-yl)-2-Hydroxypropyl)Cinnoline-6-Carboxamide]",0.449 µM,9.4 µM,–,–
"COc1cc(C(=O)NC[C@](O)(c2nc(-c3ccc(F)cc3)cc(C(C)(C)O)c2F)C(F)(F)F)cc2cc(C)nnc12 [compound 281, (-)Methoxy-3-Methyl-N-(3,3,3-Trifluoro-2-(3-Fluoro-6-(4-Fluorophenyl)-4-(2-Hydroxypropan-2-yl)Pyridin-2-yl)-2-Hydroxypropyl)Cinnoline-6-Carboxarmide]",0.029 µM,24 µM,–,–
COc1cc(C(=O)NC[C@](O)(c2cc(C(C)(C)O)c(Cl)c(-c3ccc(F)cc3)n2)C2CC2)cc2cc(C3CC3)nnc12 [compound 282],0.0032 µM,13 µM,–,–
"COc1cc(C(=O)NC[C@](O)(c2cc(C(C)(C)O)c(F)c(-c3ccc(F)cc3)n2)C(C)C)cc2cc(C3CC3)nnc12 [compound 283, (-)Cyclopropyl-N-(2-(5-Fluoro-6-(4-Fluorophenyl)-4-(2-Hydroxypropan-2-yl)Pyridin-2-yl)-2-HydroxyMethylbutyl)-8-Methoxycinnoline-6-Carboxamide]",0.0085 µM,12 µM,–,–
COc1cc(C(=O)NC[C@](O)(c2cc(C(C)(C)O)c(F)c(-c3ccc(F)cc3)n2)C2CC2)cc2cc(C(F)(F)F)nnc12 [compound 284],0.0048 µM,16 µM,–,–
"COc1cc(C(=O)NC[C@](O)(c2cc(C(C)(C)O)c(F)c(-c3ccc(F)cc3)n2)C(C)C)cc2cc(C(F)F)nnc12 [compound 285, (S)(Difluoromethyl)-N-(2-(5-Fluoro-6-(4-Fluorophenyl)-4-(2-Hydroxypropan-2-yl)Pyridin-2-yl)-2-HydroxyMethylbutyl)-8-Methoxycinnoline-6-Carboxamide]",0.0065 µM,16 µM,–,–
"COc1cc(C(=O)NC[C@](O)(c2cc(C(C)(C)O)c(F)c(-c3ccc(F)cc3)n2)C(F)(F)F)cc2cc(C3CC3)nnc12 [compound 286, (-)Cyclopropyl-8-Methoxy-N-(3,3,3-Trifluoro-2-(5-Fluoro-6-(4-Fluorophenyl)-4-(2-Hydroxypropan-2-yl)Pyridin-2-yl)-2-Hydroxypropyl)Cinnoline-6-Carboxamide]",0.0026 µM,8.9 µM,–,–
COc1cc(C(=O)NC[C@](O)(c2nc(-c3ccc(F)cc3)c(F)c(C(C)(C)O)c2F)C2CC2)cc2cc(C(F)F)nnc12 [compound 287],0.0089 µM,37 µM,–,–
"COc1cc(C(=O)NC[C@](O)(c2nc(-c3ccc(F)cc3)c(F)c(C(C)(C)O)c2F)C2CC2)cc2cc(C3CC3)nnc12 [compound 288, (-)Cyclopropyl-N-(2-Cyclopropyl-2-(3,5-Difluoro-6-(4-Fluorophenyl)-4-(2-Hydroxypropan-2-yl)Pyridin-2-yl)-2-Hydroxyethyl)-8-Methoxycinnoline-6-Carboxamide]",0.0048 µM,21 µM,–,–
"[2H]C([2H])([2H])Oc1cc(C(=O)NC[C@](O)(c2cc(C(C)(C)O)c(F)c(-c3ccc(F)cc3)n2)C2CC2)cc2cc(C3CC3)nnc12 [compound 289, (-)Cyclopropyl-N-(2-Cyclopropyl-2-(5-Fluoro-6-(4-Fluorophenyl)-4-(2-Hydroxypropan-2-yl)Pyridin-2-yl)-2-Hydroxyethyl)-8-(Methoxy-d3)Cinnoline-6-Carboxamide]",0.0018 µM,10 µM,–,–
[2H]C([2H])([2H])Oc1cc(C(=O)NC[C@](O)(c2cc(C(C)(C)O)c(F)c(-c3ccc(F)cc3)n2)C2CC2)cc2cc(C)nnc12 [compound 290],0.00021 µM,28 µM,–,–
"Cc1cc2cc(C(=O)NC[C@](O)(c3cc(C(C)(C)O)cc(-c4ccc(F)cc4)n3)C(F)(F)F)cc(OC3CC3)c2nn1 [compound 291, (-)Cyclopropoxy-3-Methyl-N-(3,3,3-Trifluoro-2-(6-(4-Fluorophenyl)-4-(2-Hydroxypropan-2-yl)Pyridin-2-yl)-2-Hydroxypropyl)Cinnoline-6-Carboxamide]",0.015 µM,57 µM,–,–
"COc1cc(C(=O)NC[C@](O)(c2cc(C(C)(C)O)c(F)c(-c3ccc(F)cc3)n2)C(F)F)cc2cc(C(F)F)nnc12 [compound 292, (-)-N-(3,3-difluoro-2-(5-fluoro-6-(4-fluorophenyl)-4-(2-hydroxypropan-2-yl)pyridin-2-yl)-2-hydroxypropyl)-3-(difluoromethyl)-8-methoxycinnoline-6-carboxamide]",0.012 µM,29 µM,–,–
"COc1cc(C(=O)NC[C@](O)(c2cc(C(C)(C)O)c(F)c(-c3ccc(F)cc3)n2)C(F)F)cc2cc(C3CC3)nnc12 [compound 293, (-)Cyclopropyl-N-(3,3-Difluoro-2-(5-Fluoro-6-(4-Fluorophenyl)-4-(2-Hydroxypropan-2-yl)Pyridin-2-yl)-2-Hydroxypropyl)-8-Methoxycinnoline-6-Carboxamide]",0.011 µM,15 µM,–,–
COc1cc(C(=O)NC[C@](O)(c2cc(C(C)(C)O)c(F)c(-c3ccc(F)cc3)n2)C2(F)CC2)cc2cc(C)nnc12 [compound 296],0.002 µM,56 µM,–,–
COc1cc(C(=O)NC[C@@](O)(c2cc(C(C)(C)O)c(F)c(-c3ccc(F)cc3)n2)C2(F)CC2)cc2cc(C)nnc12 [compound 297],0.058 µM,45 µM,–,–
COc1cc(C(=O)NC[C@](O)(c2cc(C(C)(C)O)c(F)c(-c3ccc(F)cc3)n2)C2(C)CC2)cc2cc(C)nnc12 [compound 298],0.0026 µM,52 µM,–,–
COc1cc(C(=O)NC[C@@](O)(c2cc(C(C)(C)O)c(F)c(-c3ccc(F)cc3)n2)C2(C)CC2)cc2cc(C)nnc12 [compound 299],0.093 µM,12 µM,–,–
COc1cc(C(=O)NC[C@](O)(c2cc(C(C)(C)O)cc(-c3ccc(F)cc3)n2)C2CC2)cc2cc(C)nnc12 [compound 304],0.0021 µM,23 µM,–,–
